Experimental data published in paper PMC8352984, “Estrogen mediates sex differences in preoptic neuropeptide and pituitary hormone production in medaka” (Communications Biology, 2021).

Assays:
Assay type in all cases: cell-based, medaka (Oryzias latipes)
[1] = tested on: prolactin (prl) gene expression; test: Ex vivo pituitary organ culture, real-time PCR of prl; conditions: for prl expression (in words): 10^-5 M, 24 h, 25 °C, vs vehicle
Excerpt: (§1) Fig. 8 Pacap and Vip have pleiotropic effects on the expression of anterior pituitary hormones. The effects of Pacap and Vip on gene expression levels of follicle-stimulating hormone β subunit (fshb), luteinizing hormone β subunit (lhb), thyroid-stimulating hormone β subunit (tshb), growth hormone (gh), somatolactin (sl), prolactin (prl), and pro-opiomelanocortin (pomc) were investigated by using male and female pituitaries cultured ex vivo (n = 6 per group, except male pituitary supplemented with Vip, where n = 5). Data were expressed as means with error bars representing standard error of the mean. Statistical differences were assessed by Dunnett’s post-hoc test. *p < 0.05; **p < 0.01; ***p < 0.001.
(§2) The pituitaries from five male or female fish were pooled for each sample and cultured ex vivo in Leibovitz’s L-15 medium supplemented with 5% charcoal-stripped fetal bovine serum as described elsewhere. The medium was further supplemented with 10^−5 M medaka Pacap or Vip, or vehicle alone. After 24 h of culture at 25 °C, the pituitaries were processed for total RNA extraction and cDNA synthesis by using the RNeasy Plus Micro Kit (Qiagen) and SuperScript VILO cDNA Synthesis Kit (Thermo Fisher Scientific), respectively. Real-time PCR was performed on the LightCycler 480 System II using LightCycler 480 SYBR Green I Master (Roche Diagnostics). The cycle conditions were: 95 °C for 5 min followed by 45 cycles of 95 °C for 10 sec, 60 °C for 10 sec and 72 °C for 10 sec. Melting curve analysis was performed as described above. Data were normalized to the geometric mean of three reference genes, actb, gapdh (encoding glyceraldehyde-3-phosphate dehydrogenase; National BioResource Project (NBRP) Medaka clone ID olbrno9_f15) and rpl13 (encoding ribosomal protein L13; NBRP Medaka clone ID olovano51_b24), according to Vandesompele et al.[63]. The primers used for real-time PCR are listed in Supplementary Table 3.

[2] = tested on: luteinizing hormone β subunit (lhb) gene expression; test: Ex vivo pituitary organ culture, real-time PCR of lhb; conditions: for lhb expression (in words): 10^-5 M, 24 h, 25 °C, vs vehicle;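 on lhb expression (Fig. 8, lhb): relative expression with female control samples set to 1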
Excerpt: as §1, §2

medaka Adcyap1r1a = test: Receptor activation assay, cAMP-responsive luciferase in COS-7 cells; conditions: for receptor activation, increase in intracellular cAMP levels (in words) / EC50: COS-7 cells; for receptor activation, increase in intracellular cAMP levels (in words): 6 h; for EC50: 6 h stimulation, 10^-11 to 10^-5 M, luciferase, triplicate, repeated three times, read-out: half-maximal effective concentration (EC50)
Excerpt: (§3) The number at each node indicates bootstrap values for 1000 replicates. Scale bar represents 0.1 substitutions per site. SCTR, secretin receptor. For species names and GenBank accession numbers, see Supplementary Table 2. b Ability of Pacap and Vip to activate medaka Pacap/Vip receptors. […] Representative sections of pituitary at different levels along the anterior–posterior axis are shown. Arrowheads indicate expression signals. […] Scale bars represent 50 μm. f Identity of the pituitary cells expressing each Pacap/Vip receptor. The spatial expression pattern of each receptor was compared with that of each pituitary hormone gene in the RPD and PI. Left and middle panels show images of the expression of the indicated receptor (adcyap1r1a, adcyap1r1b, or vipr2b; green) and pituitary hormone gene (sl, prl, or pomc; magenta) in the same sections; right panels show the merged images with nuclear counterstaining (blue). […] Scale bars represent 20 μm. Quantitative data were expressed as means with error bars representing standard error of the mean. […] PI pars intermedia, PPD proximal pars distalis, RPD rostral pars distalis.
(§4) Receptor activation assay was performed essentially as described previously. Medaka Pacap (38 amino acids) and Vip (28 amino acids) polypeptides with amidated C termini were synthesized by Scrum (Tokyo, Japan). cDNA fragments encoding the full-length Adcyap1r1a (GenBank accession number XM_023965124), Adcyap1r1b (XM_011474272), Vipr1a (XM_023950180), Vipr1b (XM_004079106), Vipr2a (XM_023950048) and Vipr2b (XM_023965399) were PCR-amplified and subcloned into the expression vector pcDNA3.1/V5-His-TOPO (Thermo Fisher Scientific). Each of the resulting receptor expression constructs was transiently transfected into COS-7 cells (obtained from and authenticated by Riken BRC Cell Bank), together with the cAMP-responsive luciferase reporter vector pGL4.29 (Promega) and the internal control vector pGL4.74 (Promega) at a ratio of 11:18:1 for 6 h by using Lipofectamine LTX and Plus reagent (Thermo Fisher Scientific). Forty-two hours after transfection, cells were stimulated with Pacap or Vip at doses of 0, 10^−11, 10^−10, 10^−9, 10^−8, 10^−7, 10^−6 and 10^−5 M for 6 h. After cell lysis, luciferase activity was measured by using the Dual-Luciferase Reporter Assay System (Promega). Each assay was performed in triplicate and repeated three times independently.

medaka Vipr1a = test: as above; conditions: for receptor activation, increase in intracellular cAMP levels (in words) / EC50: COS-7 cells; for receptor activation, increase in intracellular cAMP levels (in words): 6 h; for EC50: 6 h stimulation, 10^-11 to 10^-5 M, luciferase, triplicate, repeated three times, read-out: half-maximal effective concentration (EC50)
Excerpt: as §3, §4

medaka Adcyap1r1b = test: as above; conditions: for receptor activation, increase in intracellular cAMP levels (in words) / EC50: COS-7 cells; for receptor activation, increase in intracellular cAMP levels (in words): 6 h; for EC50: 6 h stimulation, 10^-11 to 10^-5 M, luciferase, triplicate, repeated three times, read-out: half-maximal effective concentration (EC50)
Excerpt: as §3, §4

medaka Vipr2b = test: as above; conditions: for receptor activation, increase in intracellular cAMP levels (in words) / EC50: COS-7 cells; for receptor activation, increase in intracellular cAMP levels (in words): 6 h; for EC50: 6 h stimulation, 10^-11 to 10^-5 M, luciferase, triplicate, repeated three times, read-out: half-maximal effective concentration (EC50)
Excerpt: as §3, §4

medaka Vipr1b = test: as above; conditions: for receptor activation, increase in intracellular cAMP levels (in words) / EC50: COS-7 cells; for receptor activation, increase in intracellular cAMP levels (in words): 6 h; for EC50: 6 h stimulation, 10^-11 to 10^-5 M, luciferase, triplicate, repeated three times, read-out: half-maximal effective concentration (EC50)
Excerpt: as §3, §4

medaka Vipr2a = test: as above; conditions: for receptor activation, increase in intracellular cAMP levels (in words) / EC50: COS-7 cells; for receptor activation, increase in intracellular cAMP levels (in words): 6 h; for EC50: 6 h stimulation, 10^-11 to 10^-5 M, luciferase, triplicate, repeated three times, read-out: half-maximal effective concentration (EC50)
Excerpt: as §3, §4

With “Pituitary adenylate cyclase-activating polypeptide [Pacap]” the “prl expression (in words)” value ([1]; female pituitaries) was “substantially increased”, the “prl expression (Fig. 8, prl)” value ([1]; female, replicate 1) was 3.510 and the “prl expression (Fig. 8, prl)” value ([1]; female, replicate 2) was 4.473. The “prl expression (Fig. 8, prl)” value ([1]; female, replicate 3) was 4.149, the “prl expression (Fig. 8, prl)” value ([1]; female, replicate 4) was 4.897 and the “prl expression (Fig. 8, prl)” value ([1]; female, replicate 5) was 3.291. The “prl expression (Fig. 8, prl)” value ([1]; female, replicate 6) was 4.279, the “prl expression (in words)” value ([1]; male pituitaries) was “substantially increased” and the “prl expression (Fig. 8, prl)” value ([1]; male, replicate 1) was 1.555. For the same substance, the “prl expression (Fig. 8, prl)” value ([1]; male, replicate 2) was 3.928, the “prl expression (Fig. 8, prl)” value ([1]; male, replicate 3) was 2.640 and the “prl expression (Fig. 8, prl)” value ([1]; male, replicate 4) was 1.612. The “prl expression (Fig. 8, prl)” value ([1]; male, replicate 5) was 3.371, the “prl expression (Fig. 8, prl)” value ([1]; male, replicate 6) was 6.401 and the “lhb expression (in words)” value ([2]; female pituitaries) was “increased”. The “lhb expression (Fig. 8, lhb)” value ([2]; female, replicate 1) was 2.134, the “lhb expression (Fig. 8, lhb)” value ([2]; female, replicate 2) was 1.510 and the “lhb expression (Fig. 8, lhb)” value ([2]; female, replicate 3) was 1.040. For the same substance, the “lhb expression (Fig. 8, lhb)” value ([2]; female, replicate 4) was 2.513, the “lhb expression (Fig. 8, lhb)” value ([2]; female, replicate 5) was 1.735 and the “lhb expression (Fig. 8, lhb)” value ([2]; female, replicate 6) was 1.319. The “lhb expression (in words)” value ([2]; male pituitaries) was “increased”, the “lhb expression (Fig. 8, lhb)” value ([2]; male, replicate 1) was 3.240 and the “lhb expression (Fig. 8, lhb)” value ([2]; male, replicate 2) was 1.453. The “lhb expression (Fig. 8, lhb)” value ([2]; male, replicate 3) was 3.021, the “lhb expression (Fig. 8, lhb)” value ([2]; male, replicate 4) was 2.751 and the “lhb expression (Fig. 8, lhb)” value ([2]; male, replicate 5) was 1.229. The “lhb expression (Fig. 8, lhb)” value ([2]; male, replicate 6) was 1.907, the “receptor activation, increase in intracellular cAMP levels (in words)” value (“receptor activation, increase” for short) (medaka Adcyap1r1a) was “dose-dependently activated all six receptors” and the EC50 (medaka Adcyap1r1a) was 0.245 nM. The “greater potency of Pacap as compared with Vip” value (medaka Adcyap1r1a; ratio of EC50) was “over 100 fold”, the “potency of Pacap and Vip compared (in words)” value (“potency … compared (in words)” for short) (medaka Vipr1a) was “fairly similar potencies” and the “receptor activation, increase” value (medaka Vipr1a) was “dose-dependently activated all six receptors”. The EC50 (medaka Vipr1a) was 0.851 nM, the “receptor activation, increase” value (medaka Adcyap1r1b) was “dose-dependently activated all six receptors” and the EC50 (medaka Adcyap1r1b) was 0.116 nM. For the same substance, the “greater potency of Pacap as compared with Vip” value (medaka Adcyap1r1b; ratio of EC50) was “over 100 fold”, the “potency … compared (in words)” value (medaka Vipr2b) was “fairly similar potencies” and the “receptor activation, increase” value (medaka Vipr2b) was “dose-dependently activated all six receptors”. For the same substance, the EC50 (medaka Vipr2b) was 2780 nM, the “receptor activation, increase” value (medaka Vipr1b) was “dose-dependently activated all six receptors” and the EC50 (medaka Vipr1b) was 14.8 nM. For the same substance, the “Pacap less potent as compared with Vip” value (medaka Vipr1b; ratio of EC50, Pacap is the weaker) was “approximately 20 fold”, the “potency … compared (in words)” value (medaka Vipr2a) was “fairly similar potencies” and the “receptor activation, increase” value (medaka Vipr2a) was “dose-dependently activated all six receptors”. For the same substance, the EC50 (medaka Vipr2a) was 3560 nM.
vasoactive intestinal peptide [Vip] was tested, and the “prl expression (in words)” value ([1]; female pituitaries) was “substantially increased”, the “prl expression (Fig. 8, prl)” value ([1]; female, replicate 1) was 4.014 and the “prl expression (Fig. 8, prl)” value ([1]; female, replicate 2) was 5.400. The “prl expression (Fig. 8, prl)” value ([1]; female, replicate 3) was 2.330, the “prl expression (Fig. 8, prl)” value ([1]; female, replicate 4) was 5.283 and the “prl expression (Fig. 8, prl)” value ([1]; female, replicate 5) was 3.539. The “prl expression (Fig. 8, prl)” value ([1]; female, replicate 6) was 6.475, the “prl expression (in words)” value ([1]; male pituitaries) was “substantially increased” and the “prl expression (Fig. 8, prl)” value ([1]; male, replicate 1) was 3.340. For the same substance, the “prl expression (Fig. 8, prl)” value ([1]; male, replicate 2) was 4.481, the “prl expression (Fig. 8, prl)” value ([1]; male, replicate 3) was 3.982 and the “prl expression (Fig. 8, prl)” value ([1]; male, replicate 5) was 3.314. The “prl expression (Fig. 8, prl)” value ([1]; male, replicate 6) was 4.421, the “lhb expression (in words)” value ([2]; female pituitaries) was “no significant effect” and the “lhb expression (Fig. 8, lhb)” value ([2]; female, replicate 1) was 0.807. For the same substance, the “lhb expression (Fig. 8, lhb)” value ([2]; female, replicate 2) was 0.719, the “lhb expression (Fig. 8, lhb)” value ([2]; female, replicate 3) was 1.380 and the “lhb expression (Fig. 8, lhb)” value ([2]; female, replicate 4) was 0.757. The “lhb expression (Fig. 8, lhb)” value ([2]; female, replicate 5) was 0.750, the “lhb expression (Fig. 8, lhb)” value ([2]; female, replicate 6) was 0.836 and the “lhb expression (in words)” value ([2]; male pituitaries) was “no significant effect”. For the same substance, the “lhb expression (Fig. 8, lhb)” value ([2]; male, replicate 1) was 1.203, the “lhb expression (Fig. 8, lhb)” value ([2]; male, replicate 2) was 1.004 and the “lhb expression (Fig. 8, lhb)” value ([2]; male, replicate 3) was 1.517. The “lhb expression (Fig. 8, lhb)” value ([2]; male, replicate 5) was 0.870, the “lhb expression (Fig. 8, lhb)” value ([2]; male, replicate 6) was 0.512 and the “receptor activation, increase” value (medaka Adcyap1r1a) was “dose-dependently activated all six receptors”. The EC50 (medaka Adcyap1r1a) was 32.3 nM, the “potency … compared (in words)” value (medaka Vipr1a) was “fairly similar potencies” and the “receptor activation, increase” value (medaka Vipr1a) was “dose-dependently activated all six receptors”. The EC50 (medaka Vipr1a) was 0.427 nM, the “receptor activation, increase” value (medaka Adcyap1r1b) was “dose-dependently activated all six receptors” and the EC50 (medaka Adcyap1r1b) was 17.8 nM. For the same substance, the “potency … compared (in words)” value (medaka Vipr2b) was “fairly similar potencies”, the “receptor activation, increase” value (medaka Vipr2b) was “dose-dependently activated all six receptors” and the EC50 (medaka Vipr2b) was 4310 nM. For the same substance, the “receptor activation, increase” value (medaka Vipr1b) was “dose-dependently activated all six receptors”, the EC50 (medaka Vipr1b) was 0.728 nM and the “potency … compared (in words)” value (medaka Vipr2a) was “fairly similar potencies”. For the same substance, the “receptor activation, increase” value (medaka Vipr2a) was “dose-dependently activated all six receptors” and the EC50 (medaka Vipr2a) was 2430 nM.
